Reference: ChEMBL document CHEMBL1833947, “Synthesis and biological investigation of potential atypical antipsychotics with a tropane core. Part 1” (Eur J Med Chem, 2011)
pKi: −log10 of the molar value. The source made the active and inactive calls. The rule behind the calls is not given here.

Assays:
[1] = molecular target: T1, 5-hydroxytryptamine receptor 1A (Rattus norvegicus, UniProt P19327); assay: Displacement of [3H]8OH-DPAT from 5HT1A in rat brain cerebral cortex after 15 mins by scintillation counting; assay type: tissue-based
T1 sequence (P19327 whole entry): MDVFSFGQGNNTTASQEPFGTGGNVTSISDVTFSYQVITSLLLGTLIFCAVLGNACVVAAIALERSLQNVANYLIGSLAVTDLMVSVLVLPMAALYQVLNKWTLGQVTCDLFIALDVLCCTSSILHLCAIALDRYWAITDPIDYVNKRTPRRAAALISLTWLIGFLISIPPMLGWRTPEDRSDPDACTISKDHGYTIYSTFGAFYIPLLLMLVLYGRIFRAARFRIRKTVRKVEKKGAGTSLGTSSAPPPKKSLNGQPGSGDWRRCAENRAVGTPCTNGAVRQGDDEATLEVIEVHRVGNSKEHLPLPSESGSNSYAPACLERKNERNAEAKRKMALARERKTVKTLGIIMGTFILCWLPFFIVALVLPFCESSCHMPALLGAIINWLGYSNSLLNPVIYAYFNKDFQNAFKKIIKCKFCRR

[2] = molecular target: 5-hydroxytryptamine receptor 2A (Rattus norvegicus, UniProt P14842); assay: Displacement of [3H]ketanserin from 5HT2A in rat brain cerebral cortex after 20 mins by scintillation counting; assay type: tissue-based
D(2) dopamine receptor = D(2) dopamine receptor (Rattus norvegicus, UniProt P61169); assay: Displacement of [3H]spiperone from dopamine D2 receptor in rat striatum tissue after 20 mins by scintillation counting; assay type: tissue-based
Mus musculus [3] = assay: Antipsychotic activity in mouse assessed as reversal of DOI-induced head twitches at 5 mg/kg, ip administered 30 mins before DOI challenge; assay type: functional; conditions: route intraperitoneal
Mus musculus [4] = assay: Antipsychotic activity in mouse assessed as reversal of DOI-induced head twitches at 10 mg/kg, ip administered 30 mins before DOI challenge; assay type: functional; conditions: route intraperitoneal
Mus musculus [5] = assay: Antipsychotic activity in mouse assessed as reversal of DOI-induced head twitches at 20 mg/kg, ip administered 30 mins before DOI challenge; assay type: functional; conditions: route intraperitoneal
Mus musculus [6] = assay: Antipsychotic activity in mouse assessed as reversal of apomorphine-induced mesh climbing response at 50 mg/kg, ip administered 20 mins prior to apomorphine challenge measured after 120 mins
Mus musculus [7] = assay: Antipsychotic activity in mouse assessed as reversal of apomorphine-induced mesh climbing response at 10 mg/kg, ip administered 10 mins prior to apomorphine challenge measured after 20 mins; assay type: functional, organism-based; set-up: dose 10 mg/kg
Mus musculus [8] = assay: Antipsychotic activity in mouse assessed as reversal of apomorphine-induced mesh climbing response at 50 mg/kg, ip administered 10 mins prior to apomorphine challenge measured after 30 mins; assay type: functional, organism-based; set-up: dose 50 mg/kg
Mus musculus [9] = assay: Antipsychotic activity in mouse assessed as reversal of apomorphine-induced mesh climbing response at 2.5 mg/kg, ip administered 10 mins prior to apomorphine challenge measured after 50 mins; assay type: functional, organism-based; set-up: dose 2.5 mg/kg
Mus musculus [10] = assay: Antipsychotic activity in mouse assessed as reversal of apomorphine-induced mesh climbing response at 2.5 mg/kg, ip administered 10 mins prior to apomorphine challenge measured after 10 mins; assay type: functional, organism-based; set-up: dose 2.5 mg/kg
Mus musculus [11] = assay: Antipsychotic activity in mouse assessed as reversal of apomorphine-induced mesh climbing response at 2.5 mg/kg, ip administered 10 mins prior to apomorphine challenge measured after 20 mins; assay type: functional, organism-based; set-up: dose 2.5 mg/kg
Mus musculus [12] = assay: Antipsychotic activity in mouse assessed as reversal of apomorphine-induced mesh climbing response at 2.5 mg/kg, ip administered 10 mins prior to apomorphine challenge measured after 30 mins; assay type: functional, organism-based; set-up: dose 2.5 mg/kg
Mus musculus [13] = assay: Antipsychotic activity in mouse assessed as reversal of apomorphine-induced mesh climbing response at 2.5 mg/kg, ip administered 10 mins prior to apomorphine challenge measured after 60 mins; assay type: functional, organism-based; set-up: dose 2.5 mg/kg

D(2) dopamine receptor, sequence (P61169 whole entry): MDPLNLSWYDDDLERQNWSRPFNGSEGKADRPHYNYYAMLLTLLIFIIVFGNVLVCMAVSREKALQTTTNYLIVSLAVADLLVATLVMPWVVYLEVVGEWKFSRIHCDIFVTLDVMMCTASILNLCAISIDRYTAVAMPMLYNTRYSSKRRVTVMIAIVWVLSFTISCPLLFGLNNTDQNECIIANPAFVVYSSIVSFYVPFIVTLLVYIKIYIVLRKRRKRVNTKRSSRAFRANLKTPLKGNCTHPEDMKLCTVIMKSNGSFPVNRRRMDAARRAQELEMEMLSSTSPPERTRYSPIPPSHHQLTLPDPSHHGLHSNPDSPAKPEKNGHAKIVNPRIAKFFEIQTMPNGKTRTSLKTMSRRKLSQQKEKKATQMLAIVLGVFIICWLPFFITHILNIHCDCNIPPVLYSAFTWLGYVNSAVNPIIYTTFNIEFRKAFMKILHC
5-hydroxytryptamine receptor 2A, sequence (P14842 whole entry): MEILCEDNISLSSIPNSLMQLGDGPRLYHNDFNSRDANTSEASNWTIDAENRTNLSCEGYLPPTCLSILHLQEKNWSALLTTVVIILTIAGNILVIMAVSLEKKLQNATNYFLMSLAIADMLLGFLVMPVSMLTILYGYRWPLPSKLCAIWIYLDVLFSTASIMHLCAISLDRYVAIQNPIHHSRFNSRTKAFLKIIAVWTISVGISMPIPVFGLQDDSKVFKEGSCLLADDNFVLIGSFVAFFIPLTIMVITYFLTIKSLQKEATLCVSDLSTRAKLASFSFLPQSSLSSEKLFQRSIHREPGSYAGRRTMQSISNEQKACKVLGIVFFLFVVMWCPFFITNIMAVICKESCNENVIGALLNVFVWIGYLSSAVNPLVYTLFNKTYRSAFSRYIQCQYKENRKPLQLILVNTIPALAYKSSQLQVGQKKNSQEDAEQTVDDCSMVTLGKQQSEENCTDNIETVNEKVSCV

Row | Structure (SMILES) | pKi [1] | pKi [2] | pKi (D(2) dopamine receptor) | further results
1 | COc1cccc(C(=O)N[C@@H]2CC3CC[C@H](C2)N3Cc2ccco2)c1OC (single isomer, unassigned; 14a) | < 4.00 | 5.60 | < 4.00 | –
2 | O=C(N[C@@H]1CC2CC[C@H](C1)N2CC1CCCO1)c1cccc2ccccc12 (single isomer, unassigned) | 5.51 | 6.40 | 5.40 | –
3 | O=C(N[C@@H]1CC2CC[C@H](C1)N2CC1CCCO1)c1ccc2ccccc2c1 (single isomer, unassigned) | 5.48 | 7.91 | 5.92 | Activity (Mus musculus [3]): 26%; Activity (Mus musculus [4]): 63%; Activity (Mus musculus [5]): 73%; Activity (Mus musculus [6]): Active
4 | COc1ccc(F)cc1C(=O)N[C@H]1CC2CC[C@H](C1)N2Cc1ccco1 (single isomer, unassigned) | 4.76 | 5.85 | 6.29 | –
5 | COc1cc(OC)cc(C(=O)N[C@H]2CC3CC[C@H](C2)N3Cc2ccco2)c1 (single isomer, unassigned) | 5.36 | 6.03 | 4.88 | –
6 | COc1cccc(C(=O)N[C@@H]2CC3CC[C@H](C2)N3Cc2ccccn2)c1OC (single isomer, unassigned) | 5.85 | 6.00 | 8.03 | –
7 | O=C(N[C@H]1CC2CC[C@H](C1)N2Cc1ccco1)c1ccc(Cl)cc1[N+](=O)[O-] (single isomer, unassigned) | 4.80 | 4.49 | 4.72 | –
8 | COc1cccc(C(=O)N[C@@H]2CC3CC[C@H](C2)N3Cc2ccco2)c1OC (single isomer, unassigned; 4b) [listing 1 of 2 here] | – | – | – | Activity (Mus musculus [7]): inactive; Activity (Mus musculus [8]): Active; Activity (Mus musculus [6]): Active
9 | CN1CCc2cccc3c2[C@H]1Cc1ccc(O)c(O)c1-3 | – | – | – | Activity (Mus musculus [9]): inactive; Activity (Mus musculus [10]): inactive; Activity (Mus musculus [11]): inactive; Activity (Mus musculus [12]): inactive; Activity (Mus musculus [13]): inactive
10 | O=C(N[C@H]1CC2CC[C@H](C1)N2Cc1ccco1)c1cccc2ccccc12 (single isomer, unassigned) | 5.15 | 5.64 | 4.18 | –
11 | COc1cccc(C(=O)N[C@@H]2CC3CC[C@H](C2)N3Cc2ccco2)c1OC (single isomer, unassigned; 4b) [listing 2 of 2 here] | 5.52 | 6.13 | 7.58 | Activity (Mus musculus [3]): 33%; Activity (Mus musculus [4]): 28%; Activity (Mus musculus [5]): 47%
12 | COc1cccc(C(=O)N[C@@H]2CC3CC[C@H](C2)N3Cc2ccncc2)c1OC (single isomer, unassigned) | 5.60 | 6.15 | 7.55 | –
13 | O=C(N[C@@H]1CC2CC[C@H](C1)N2Cc1ccccc1)c1cccc2ccccc12 (single isomer, unassigned) | 6.27 | 6.40 | 5.54 | –
